In publication PMC5218480 (PLoS ONE, 2017):

System: MV-4-11 cells
Experiment: Gene expression microarray analysis (Affymetrix PrimeView) and GSEA
Type: cell-based, human
Design: RFU PODN (11730768_x_at) / Fold change /veh PODN (11730768_x_at) / RFU LINC00158 (11744669_a_at) / Fold change /veh LINC00158 (11744669_a_at) / RFU DUSP10 (11751237_a_at) / Fold change /veh DUSP10 (11751237_a_at) / RFU ID3 (11757404_x_at) / Fold change /veh ID3 (11757404_x_at) / RFU PLEKHG5 (11737974_s_at) / Fold change /veh PLEKHG5 (11737974_s_at) / RFU LRRC4B (11730491_at) / Fold change /veh LRRC4B (11730491_at) / RFU GIMAP4 (11747438_a_at) / Fold change /veh GIMAP4 (11747438_a_at) / RFU KRT8 (11758183_x_at) / Fold change /veh KRT8 (11758183_x_at) / RFU CNN1 (11734310_a_at) / Fold change /veh CNN1 (11734310_a_at) / RFU VPS37D (11726825_at) / Fold change /veh VPS37D (11726825_at) / RFU C10orf10 (11716522_x_at) / Fold change /veh C10orf10 (11716522_x_at) / RFU KIR2DL2 /// KIR2DL4 /// KIR2DL5A /// KIR2DL5B /// KIR2DS1 /// KIR2DS2 /// KIR2DS3 /// KIR2DS4 /// KIR3DL3 /// KIR3DL3 /// KIR3DS1 (11738374_at) / Fold change /veh KIR2DL2 /// KIR2DL4 /// KIR2DL5A /// KIR2DL5B /// KIR2DS1 /// KIR2DS2 /// KIR2DS3 /// KIR2DS4 /// KIR3DL3 /// KIR3DL3 /// KIR3DS1 (11738374_at) / RFU C1QL1 (11718748_at) / Fold change /veh C1QL1 (11718748_at) / RFU TMPRSS4 (11747572_a_at) / Fold change /veh TMPRSS4 (11747572_a_at) / RFU HAMP (11756126_x_at) / Fold change /veh HAMP (11756126_x_at) / RFU RNFT2 (11725882_a_at) / Fold change /veh RNFT2 (11725882_a_at) / RFU NR4A2 (11747474_a_at) / Fold change /veh NR4A2 (11747474_a_at) / RFU ABCC12 (11746883_a_at) / Fold change /veh ABCC12 (11746883_a_at) / RFU TMEM136 (11760407_x_at) / Fold change /veh TMEM136 (11760407_x_at) / RFU CLDN22 /// WWC2 (11732394_at) / Fold change /veh CLDN22 /// WWC2 (11732394_at) / RFU HLA-DPB1 (11760878_x_at) / Fold change /veh HLA-DPB1 (11760878_x_at) / RFU SPINT1 (11716480_a_at) / Fold change /veh SPINT1 (11716480_a_at) / RFU GAP43 (11754022_s_at) / Fold change /veh GAP43 (11754022_s_at) / RFU A4GNT (11735810_at) / Fold change /veh A4GNT (11735810_at) / RFU PRB3 (11715151_x_at) / Fold change /veh PRB3 (11715151_x_at) / RFU TUBB4B (11761932_at) / Fold change /veh TUBB4B (11761932_at) / RFU CAPN14 (11732068_a_at) / Fold change /veh CAPN14 (11732068_a_at) / RFU TMCC2 (11721928_a_at) / Fold change /veh TMCC2 (11721928_a_at) / RFU IRGQ (11745062_a_at) / Fold change /veh IRGQ (11745062_a_at) / RFU FAM174B (11720279_a_at) / Fold change /veh FAM174B (11720279_a_at) / RFU TMPRSS4 (11748680_a_at) / Fold change /veh TMPRSS4 (11748680_a_at) / RFU FAM212B (11763350_a_at) / Fold change /veh FAM212B (11763350_a_at) / RFU PLEKHG5 (11743358_a_at) / Fold change /veh PLEKHG5 (11743358_a_at) / RFU ZSCAN30 (11745921_a_at) / Fold change /veh ZSCAN30 (11745921_a_at) / RFU CMKLR1 (11741424_a_at) / Fold change /veh CMKLR1 (11741424_a_at) / RFU LOC101060620 /// MAPK8IP1 (11723275_at) / Fold change /veh LOC101060620 /// MAPK8IP1 (11723275_at) / RFU SPTSSB (11747773_x_at) / Fold change /veh SPTSSB (11747773_x_at) / RFU PRSS12 (11739890_at) / Fold change /veh PRSS12 (11739890_at) / RFU BIN1 (11741810_x_at) / Fold change /veh BIN1 (11741810_x_at) / RFU WNT11 (11732464_a_at) / Fold change /veh WNT11 (11732464_a_at) / RFU C10orf10 (11716521_a_at) / Fold change /veh C10orf10 (11716521_a_at) / RFU C5orf56 (11738089_at) / Fold change /veh C5orf56 (11738089_at) / RFU CYB561 (11721691_x_at) / Fold change /veh CYB561 (11721691_x_at) / RFU ANKRD19P (11752326_a_at) / Fold change /veh ANKRD19P (11752326_a_at) / RFU OR2T12 /// OR2T33 /// OR2T8 (11738714_s_at) / Fold change /veh OR2T12 /// OR2T33 /// OR2T8 (11738714_s_at) / RFU VCAN (11748164_a_at) / Fold change /veh VCAN (11748164_a_at) / RFU JSRP1 (11732532_at) / Fold change /veh JSRP1 (11732532_at) / RFU KRTAP10-11 (11738290_x_at) / Fold change /veh KRTAP10-11 (11738290_x_at) / RFU MYO3A (11730013_a_at) / Fold change /veh MYO3A (11730013_a_at) / RFU EBF3 (11725865_a_at) / Fold change /veh EBF3 (11725865_a_at) / RFU CAMK2N1 (11719241_x_at) / Fold change /veh CAMK2N1 (11719241_x_at) / RFU C5orf56 (11738088_a_at) / Fold change /veh C5orf56 (11738088_a_at) / RFU OLFML3 (11715873_a_at) / Fold change /veh OLFML3 (11715873_a_at) / RFU LOC100653217 /// NTM (11731650_a_at) / Fold change /veh LOC100653217 /// NTM (11731650_a_at) / RFU MAPK11 (11762145_a_at) / Fold change /veh MAPK11 (11762145_a_at) / RFU FIZ1 (11724087_x_at) / Fold change /veh FIZ1 (11724087_x_at) / RFU OASL (11726364_x_at) / Fold change /veh OASL (11726364_x_at) / RFU SOX15 (11748057_x_at) / Fold change /veh SOX15 (11748057_x_at) / RFU CD79A (11719716_a_at) / Fold change /veh CD79A (11719716_a_at) / RFU HIST1H1D (11736915_at) / Fold change /veh HIST1H1D (11736915_at) / RFU CASKIN2 (11723855_a_at) / Fold change /veh CASKIN2 (11723855_a_at) / RFU LOC730098 (11760151_x_at) / Fold change /veh LOC730098 (11760151_x_at) / RFU OR4N2 (11742367_at) / Fold change /veh OR4N2 (11742367_at) / RFU PRRT2 (11749266_a_at) / Fold change /veh PRRT2 (11749266_a_at) / RFU SNX32 (11753110_a_at) / Fold change /veh SNX32 (11753110_a_at) / RFU CDHR5 (11726645_a_at) / Fold change /veh CDHR5 (11726645_a_at) / RFU RCAN1 (11760418_a_at) / Fold change /veh RCAN1 (11760418_a_at) / RFU FAM167A (11723789_a_at) / Fold change /veh FAM167A (11723789_a_at) / RFU FAM26E (11764081_at) / Fold change /veh FAM26E (11764081_at) / RFU ISYNA1 (11749810_s_at) / Fold change /veh ISYNA1 (11749810_s_at) / RFU ACY1 (11761880_at) / Fold change /veh ACY1 (11761880_at) / RFU 11764098_at / Fold change /veh 11764098_at / RFU SAMD14 (11745864_x_at) / Fold change /veh SAMD14 (11745864_x_at) / RFU NPB (11741838_a_at) / Fold change /veh NPB (11741838_a_at) / RFU TMPRSS6 (11731388_a_at) / Fold change /veh TMPRSS6 (11731388_a_at) / RFU KRTAP10-2 (11738614_at) / Fold change /veh KRTAP10-2 (11738614_at) / RFU ARHGAP8 /// PRR5-ARHGAP8 (11727945_x_at) / Fold change /veh ARHGAP8 /// PRR5-ARHGAP8 (11727945_x_at) / RFU KRTAP5-7 /// NADSYN1 (11734609_at) / Fold change /veh KRTAP5-7 /// NADSYN1 (11734609_at) / RFU RASL12 (11751679_a_at) / Fold change /veh RASL12 (11751679_a_at) / RFU CDKN2B (11736163_a_at) / Fold change /veh CDKN2B (11736163_a_at) / RFU PRF1 (11729649_at) / Fold change /veh PRF1 (11729649_at) / RFU, ZNF638 /// ZNF638-IT1 / Fold change vs veh, ZNF638 /// ZNF638-IT1 / RFU, PANK3 / Fold change vs veh, PANK3 / RFU, SH3YL1 / Fold change vs veh, SH3YL1 / RFU, ZEB2 / Fold change vs veh, ZEB2 / RFU, NRIP1 / Fold change vs veh, NRIP1 / RFU, PTTG1IP / Fold change vs veh, PTTG1IP / RFU, CAPN2 / Fold change vs veh, CAPN2 / RFU, MED14 / Fold change vs veh, MED14 / RFU, SNORA58 / Fold change vs veh, SNORA58 / RFU, C1orf63 / Fold change vs veh, C1orf63 / RFU, LRRFIP1 / Fold change vs veh, LRRFIP1 / RFU, NDUFAF7 / Fold change vs veh, NDUFAF7 / RFU, SLC12A2 / Fold change vs veh, SLC12A2 / RFU, IBTK / Fold change vs veh, IBTK / RFU, ESF1 / Fold change vs veh, ESF1 / Fold change vs veh, TMEM50B / RFU, TAOK1 / Fold change vs veh, TAOK1 / RFU, ACBD3 / Fold change vs veh, ACBD3 / RFU, TMA16 / Fold change vs veh, TMA16 / RFU, RWDD3 / Fold change vs veh, RWDD3 / RFU, BCAT1 / Fold change vs veh, BCAT1 / RFU, EDEM3 / Fold change vs veh, EDEM3 / RFU, TMEM33 / Fold change vs veh, TMEM33 / RFU, WDR75 / Fold change vs veh, WDR75 / RFU, AHCTF1 / Fold change vs veh, AHCTF1 / RFU, TFRC / Fold change vs veh, TFRC / RFU, ZDHHC17 / Fold change vs veh, ZDHHC17 / RFU, NOM1 / Fold change vs veh, NOM1 / RFU, ARL8B / Fold change vs veh, ARL8B / RFU, ZBTB11 / Fold change vs veh, ZBTB11 / RFU, TAMM41 / Fold change vs veh, TAMM41 / RFU, KIAA1704 /// LOC100996395 / Fold change vs veh, KIAA1704 /// LOC100996395 / RFU, ING1 / Fold change vs veh, ING1 / RFU, TRMT61B / Fold change vs veh, TRMT61B / RFU, FUBP3 / Fold change vs veh, FUBP3 / RFU, TP53 / Fold change vs veh, TP53 / RFU, TNKS2 / Fold change vs veh, TNKS2 / RFU, ZFP14 / Fold change vs veh, ZFP14 / RFU, ACTR2 / Fold change vs veh, ACTR2 / RFU, PPP3R1 / Fold change vs veh, PPP3R1 / RFU, PIK3R1 / Fold change vs veh, PIK3R1 / RFU, HNRNPA1 / Fold change vs veh, HNRNPA1 / RFU, RNF170 / Fold change vs veh, RNF170 / RFU, ZNF28 / Fold change vs veh, ZNF28 / RFU, RNGTT / Fold change vs veh, RNGTT / RFU, OGT / Fold change vs veh, OGT / RFU, BRD1 / Fold change vs veh, BRD1 / RFU, MARS / Fold change vs veh, MARS / RFU, ZNF655 / Fold change vs veh, ZNF655 / RFU, FAHD1 / Fold change vs veh, FAHD1 / RFU, BDP1 / Fold change vs veh, BDP1 / RFU, LRRCC1 / Fold change vs veh, LRRCC1 / RFU, ARID1A / Fold change vs veh, ARID1A / RFU, ZNF146 / Fold change vs veh, ZNF146 / RFU, ZNF330 / Fold change vs veh, ZNF330 / RFU, GPN3 / Fold change vs veh, GPN3 / RFU, C9orf123 / Fold change vs veh, C9orf123 / RFU, N4BP2L2 / Fold change vs veh, N4BP2L2 / RFU, ARFIP1 / Fold change vs veh, ARFIP1 / RFU, FAM179B / Fold change vs veh, FAM179B / RFU, BCL10 / Fold change vs veh, BCL10 / RFU, UHRF1BP1L / Fold change vs veh, UHRF1BP1L / RFU, BET1 / Fold change vs veh, BET1 / RFU, CNOT2 / Fold change vs veh, CNOT2 / RFU, ZNF268 / Fold change vs veh, ZNF268 / Fold change vs veh, ZNF507 / RFU, DGCR2 / Fold change vs veh, DGCR2 / RFU, WDSUB1 / Fold change vs veh, WDSUB1 / Fold change vs veh, HSP90B1 /// MIR3652 / RFU, ADSS / Fold change vs veh, ADSS / RFU, GK / Fold change vs veh, GK / RFU, ZNF148 / Fold change vs veh, ZNF148 / RFU, TAF9 / Fold change vs veh, TAF9 / RFU, SLC1A5 / Fold change vs veh, SLC1A5 / RFU, SLMO2 / Fold change vs veh, SLMO2 / RFU, ABCC4 / Fold change vs veh, ABCC4 / RFU, LOC101060439 /// RAP1B / Fold change vs veh, LOC101060439 /// RAP1B / RFU, RFX7 / Fold change vs veh, RFX7 / RFU, GTPBP10 / Fold change vs veh, GTPBP10 / RFU, CNEP1R1 / Fold change vs veh, CNEP1R1 / RFU, BIVM-ERCC5 /// ERCC5 / Fold change vs veh, BIVM-ERCC5 /// ERCC5 / RFU, ILF3 / Fold change vs veh, ILF3 / RFU 11762660_at / Fold change /veh 11762660_at / RFU VCAN (11757783_s_at) / Fold change /veh VCAN (11757783_s_at) / RFU DDX43 (11728927_at) / Fold change /veh DDX43 (11728927_at) / RFU KRT8 (11758188_x_at) / Fold change /veh KRT8 (11758188_x_at) / RFU NKD1 (11759106_at) / Fold change /veh NKD1 (11759106_at) / RFU SRD5A1 (11742802_a_at) / Fold change /veh SRD5A1 (11742802_a_at) / RFU TPSAB1 /// TPSB2 (11721975_s_at) / Fold change /veh TPSAB1 /// TPSB2 (11721975_s_at) / RFU GSTM3 (11746129_a_at) / Fold change /veh GSTM3 (11746129_a_at) / RFU IL23R (11737362_x_at) / Fold change /veh IL23R (11737362_x_at) / RFU TMEM51 (11727254_a_at) / Fold change /veh TMEM51 (11727254_a_at) / RFU PIWIL2 (11732686_x_at) / Fold change /veh PIWIL2 (11732686_x_at) / RFU ORM1 (11744905_x_at) / Fold change /veh ORM1 (11744905_x_at) / RFU CCDC152 (11743942_at) / Fold change /veh CCDC152 (11743942_at) / RFU ECM1 (11717891_a_at) / Fold change /veh ECM1 (11717891_a_at) / RFU IL23R (11748794_a_at) / Fold change /veh IL23R (11748794_a_at) / RFU TNFAIP8L3 (11732012_x_at) / Fold change /veh TNFAIP8L3 (11732012_x_at) / RFU MBOAT4 (11741988_at) / Fold change /veh MBOAT4 (11741988_at) / RFU 11764193_at / Fold change /veh 11764193_at / RFU TMEM53 (11763286_at) / Fold change /veh TMEM53 (11763286_at) / RFU MAGEB2 (11727129_at) / Fold change /veh MAGEB2 (11727129_at) / RFU TMEM200A (11744735_a_at) / Fold change /veh TMEM200A (11744735_a_at) / RFU CCDC152 (11751479_a_at) / Fold change /veh CCDC152 (11751479_a_at) / RFU FAM211A (11726209_a_at) / Fold change /veh FAM211A (11726209_a_at) / RFU RGS16 (11746705_a_at) / Fold change /veh RGS16 (11746705_a_at) / RFU VCAN (11755009_s_at) / Fold change /veh VCAN (11755009_s_at) / RFU RHOB (11743442_s_at) / Fold change /veh RHOB (11743442_s_at) / RFU RGS16 (11720943_a_at) / Fold change /veh RGS16 (11720943_a_at) / RFU RGS16 (11720944_at) / Fold change /veh RGS16 (11720944_at) / RFU, VPS4B / Fold change vs veh, VPS4B / RFU, CREB1 / Fold change vs veh, CREB1 / RFU, DNAJC13 / Fold change vs veh, DNAJC13 / RFU, GNAQ / Fold change vs veh, GNAQ / RFU, CDK5R1 / Fold change vs veh, CDK5R1 / RFU, ZRANB3 / Fold change vs veh, ZRANB3 / RFU, CUL4A / Fold change vs veh, CUL4A / RFU, CCNY / Fold change vs veh, CCNY / RFU, UFL1 / Fold change vs veh, UFL1 / RFU, COG3 / Fold change vs veh, COG3 / RFU, DIAPH2 / Fold change vs veh, DIAPH2 / RFU, SKA2 / Fold change vs veh, SKA2 / RFU, AFF3 / Fold change vs veh, AFF3 / RFU, LMF1 / Fold change vs veh, LMF1 / RFU, IPO11 / Fold change vs veh, IPO11 / RFU, DFFB / Fold change vs veh, DFFB / RFU, FOXP1 / Fold change vs veh, FOXP1 / RFU, CARD8 / Fold change vs veh, CARD8 / RFU, STRN3 / Fold change vs veh, STRN3 / RFU, ADK / Fold change vs veh, ADK / RFU, RASSF2 / Fold change vs veh, RASSF2 / RFU, WIPF1 / Fold change vs veh, WIPF1 / RFU, LARP1B / Fold change vs veh, LARP1B / RFU, RASA1 / Fold change vs veh, RASA1 / RFU, RB1 / Fold change vs veh, RB1 / RFU, PPFIA1 / Fold change vs veh, PPFIA1 / RFU, MAT2A / Fold change vs veh, MAT2A / RFU, CCT5 / Fold change vs veh, CCT5 / RFU, WDR92 / Fold change vs veh, WDR92 / RFU, CUX1 / Fold change vs veh, CUX1 / RFU, TTC7A / Fold change vs veh, TTC7A / RFU, TMEM135 / Fold change vs veh, TMEM135 / RFU, DEPTOR / Fold change vs veh, DEPTOR / RFU, CPM / Fold change vs veh, CPM / RFU, DNAJB6 / Fold change vs veh, DNAJB6 / RFU, CACNA2D3 / Fold change vs veh, CACNA2D3 / RFU, DTX4 / Fold change vs veh, DTX4 / RFU, TFCP2 / Fold change vs veh, TFCP2 / RFU, GMCL1 /// GMCL1P1 / Fold change vs veh, GMCL1 /// GMCL1P1 / RFU, AEBP2 / Fold change vs veh, AEBP2 / RFU, SNHG1 /// SNORD22 /// SNORD25 /// SNORD26 /// SNORD27 /// SNORD28 /// SNORD29 /// SNORD31 / Fold change vs veh, SNHG1 /// SNORD22 /// SNORD25 /// SNORD26 /// SNORD27 /// SNORD28 /// SNORD29 /// SNORD31 / Fold change (Aza/veh), C12orf56 (ProbeSet 11735607_a_at) / Fold change (ACY-1035/veh), C12orf56 (ProbeSet 11735607_a_at) / Fold change (Aza/veh), FGFR1OP (ProbeSet 11751329_s_at) / Fold change (ACY-1035/veh), FGFR1OP (ProbeSet 11751329_s_at) / Fold change (Aza/veh), VPS36 (ProbeSet 11739960_a_at) / Fold change (ACY-1035/veh), VPS36 (ProbeSet 11739960_a_at) / RFU SYPL1 (11715823_x_at) / Fold change /veh SYPL1 (11715823_x_at) / RFU IGFBP7 (11715501_s_at) / Fold change /veh IGFBP7 (11715501_s_at) / RFU REEP3 (11722064_at) / Fold change /veh REEP3 (11722064_at) / RFU IGLL1 (11728026_x_at) / Fold change /veh IGLL1 (11728026_x_at): dose or concentration left out as unconfirmed
Conditions: ProbeSet 11717876_a_at; LIST D

## Nc1ncn([C@@H]2O[C@H](CO)[C@@H](O)[C@H]2O)c(=O)n1 [azacitidine]
  RFU, PPFIA1: 24.22 RFU
